Type in all cases: cell-based, human
For one experiment, the system named is DLD1 cells. The experiment can be described thus: Cell viability and proliferation assay (XCELLigence). How it is done:
Cell viability and proliferation assays were carried out by means of XCELLigence technology (ACEA Biosciences, Inc.) following the manufacturer's indications. Migration and invasion assays were carried out in Corning® BioCoat™ Control plates (#354578) and Corning® BioCoat™ Matrigel plates (#354480), respectively, following the manufacturer's indications. For the rescue assays, the cells were treated for 72 hours with 30 μM apabetalone (RVX-208; Biovision). Antibodies: ABCA1 (Ab18180, Abcam. 1:500); caveolin-1 (Ab2910, Abcam. 1:1000); α-tubulin (T9026, Sigma 1:1000). The DLD1 cells correspond to a human colorectal cancer-derived adherent epithelial cell line (ATCC® CCL-221™). The stable cell lines capable of overexpressing ABCA1 were obtained by means of transduction with genetically modified lentivirus.
Following the same treatment regimen, the inventors carried out migration and invasion assays.
The same assays were repeated by replacing ApoA1 with a treatment with RVX-208. In this case, DLD1 cells were pre-treated for 72 hours before the start of the experiment with RVX-208 at a concentration of 30 μm and were subjected to a treatment with 15 μM of RVX-208 during the development of the experiments.
For the purpose of confirming that the effects of RVX-208 in cell phenotype recovery were due to the increase in ApoA-1 expression, the inventors inhibited the expression of said protein by means of transfection of a complementary small RNA, ShApoA1 (FIG. 9). Twenty-four hours after transfection with ShApoA1 expression vector, the inventors started treatment with 30 μM of RVX-208. Cell viability and proliferation in DLD1 cells (D_NoORF) and D1D1 cell lines expressing increased ApoA1 levels (D_ApoA1 ) were analyzed with the xCELLigence system.

The subject of a further experiment is DLD1_ABCA1 cells. The experiment can be described thus: Invasion assay (Corning BioCoat Matrigel plates). The settings on record: Rvx-208 with ApoA1 silenced by shApoA1; cells with high ABCA1 levels. How it is done:
FIG. 6. A) Proliferation curve in a viability assay carried out by means of XCELLigence technology. The results for the stable cell line overexpressing ABCA1 in the absence and presence of ApoA1 are shown. The cells were treated for 72 hours before the experiment with 40 μg/ml of ApoA1 and with a concentration of 20 μg/ml during acquisition. B) Migration and invasion assays. The method followed was the same as the one described in FIG. 1. (**p-value=0.003; ****p-value<0.0001). C) ABCA1 messenger RNA level (left panel) and ABCA1 protein level (right panel) in the presence and absence of treatment with ApoA1. […]
The inventors were able to confirm said results based on the treatment of DLD1 cells expressing ABCA1 with RVX-208 under the conditions already described in detail in Example 3. […] The levels of caveolin-1, a protein whose increased levels have been associated with increases in cell migration and invasion, were also analyzed in this experiment.
For the purpose of confirming that the effects of RVX-208 in cell phenotype recovery were due to the increase in ApoA-1 expression, the inventors inhibited the expression of said protein by means of transfection of a complementary small RNA, ShApoA1 (FIG. 9). […] Cell viability and proliferation in DLD1 cells (D_NoORF) and D1D1 cell lines expressing increased ApoA1 levels (D_ApoA1 ) were analyzed with the xCELLigence system.

In experiment [1] the test system is DLD1 cells overexpressing ABCA1. Briefly: Growth of Matrigel-embedded spheroids. The settings on record: treatment with Rvx-208; Matrigel-embedded spheroids from DLD1 cells overexpressing ABCA1. The text has this: FIG. 8: A) Growth of spheroids derived from control cells and cells overexpressing ABCA1. The top panels correspond to the control treatment (carrier), the bottom panels correspond to treatment with Rvx-208. The growth curves represent the mean volume of a total of 30 spheroids per cell line. The inventors were able to confirm said results based on the treatment of DLD1 cells expressing ABCA1 with RVX-208 under the conditions already described in detail in Example 3. In this case, the DLD1 cells overexpressing ABCA1 were pre-treated for 72 hours before the start of the experiment with RVX-208 at a concentration of 30 μm and were subjected to a treatment with 15 μM of RVX-208 during the development of the experiments. […] The levels of caveolin-1, a protein whose increased levels have been associated with increases in cell migration and invasion, were also analyzed in this experiment.

The test system of experiment [2] is D1D1 cell lines expressing increased ApoA1 levels (D_ApoA1). The experiment can be described thus: Cell viability and proliferation (xCELLigence) with ShApoA1/scramble transfection. Particulars: 30 μM RVX-208, ApoA1 expression not inhibited (Scr+Rvx-208); D_ApoA1 cells. Here is the method: FIG. 9: A) Proliferation curve in a viability assay carried out by means of XCELLigence technology. Growth of DLD1 cells treated with DMSO as the drug carrier and with Rvx-208 (30 μM). Control cells (scramble, SCR) are shown in black. Cells transfected with anti-ApoA1 short hairpin are shown in gray. The significant differences existing in the values of the slope of the graphs on the left-hand side, and therefore in the growth dynamics of the treated cells, are shown in the right panels (*p-value=0.0471; **p-value=0.0067; ****p-value<0.0001). B) Invasion assays in cells with silenced ApoA1 expression. For the purpose of confirming that the effects of RVX-208 in cell phenotype recovery were due to the increase in ApoA-1 expression, the inventors inhibited the expression of said protein by means of transfection of a complementary small RNA, ShApoA1 (FIG. 9). Twenty-four hours after transfection with ShApoA1 expression vector, the inventors started treatment with 30 μM of RVX-208. Cell viability and proliferation in DLD1 cells (D_NoORF) and D1D1 cell lines expressing increased ApoA1 levels (D_ApoA1 ) were analyzed with the xCELLigence system.

On to `COc1cc(OC)c2c(=O)[nH]c(-c3cc(C)c(OCCO)c(C)c3)nc2c1` [RVX-208, 2-(4-(2-hydroxyethoxy)-3,5-dimethylphenyl)-5,7-dimethoxyquinazolin-4(3H)-one], for which the proliferation indices entry with DLD1 cells (30 μM RVX-208, ApoA1 expression not inhibited (Scr+Rvx-208), DLD1 cells (D_NoORF)) is given as “significantly lower”; in experiment [2], “significantly lower”. Besides, the proliferative capacity entry with DLD1 cells (RVX-208 pre-treatment 72 hours at 30 μm, 15 μM during experiment, DLD1 cells) is listed as “significant decrease in proliferative capacity”. Further, the “effectiveness of treatment in terms of a decrease in cell invasion capacities” value with DLD1_ABCA1 cells is “reduces the effectiveness of treatment”. In addition, the “growth of three-dimensional structures (spheroids)” value in experiment [1] is on record as “slows down the growth”.
